Active and inactive are the calls of the source.
Columns and labels:
[1] = target: Tyrosine-protein phosphatase non-receptor type 11 (Homo sapiens, UniProt Q06124); assay: SHP2 phosphatase inhibition, dose response, selectivity assay for STEP inhibitor project, biochemical (AID 602367); type: functional; settings: read-out: IC50_Mean
[2] = target: Tyrosine-protein phosphatase non-receptor type 5 (Homo sapiens, UniProt P54829); assay: STEP phosphatase inhibitors, confirmation, biochemical, fluorescence intensity, uHTS hits (AID 602372); type: functional; settings: read-out: IC50_Mean
[3] = target: Dual specificity protein phosphatase 3 (Homo sapiens, UniProt P51452); assay: VHR phosphatase inhibition, dose response, selectivity assay for STEP inhibitor project, biochemical (AID 602374); type: functional; settings: read-out: IC50_Mean
[4] = AlphaScreen signal interference compounds, dose response, artefact control for ARNT-TACC3 interaction inhibitor project, biochemical, luminescence, cherry-pick (AID 651705); type: functional;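 also: AlphaScreen bead proximity signal that flags compounds interfering with the detection technology; potency reflects signal decrease which marks the compound as an assay artifact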
Escherichia coli = assay: microbe, parasite or virus in culture
Cytochrome P450 3A4 = Cytochrome P450 3A4 (Homo sapiens, UniProt P08684);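 also: CYP3A4 tested as one member of a cytochrome P450 panel screen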
[5] = target: Adenosylmethionine-8-amino-7-oxononanoate aminotransferase (Mycobacterium tuberculosis, UniProt P9WQ81); assay: Mycobacterium tuberculosis BioA enzyme inhibitor Measured in Biochemical System Using Plate Reader - 2163-02_Inhibitor_Dose_CherryPick_Activity.; type: functional, Mycobacterium tuberculosis UT205
[6] = ARNT/TACC3 interaction disruptors, potency, confirmation, biochemical, AlphaScreen, cherry-picked samples (AID 651703); type: functional, Homo sapiens;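 also: His-tagged ARNT PAS-B domain paired with GST-TACC3 E629A dimer coactivator fragment; potency of inhibitors that break up the complex and lower AlphaScreen signal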
[7] = target: T1, Aryl hydrocarbon receptor (Homo sapiens, UniProt P35869); settings: Potency;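 also: confirmatory quantitative high-throughput screen measuring activation of the AhR signaling pathway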
T1 sequence (P35869 whole entry): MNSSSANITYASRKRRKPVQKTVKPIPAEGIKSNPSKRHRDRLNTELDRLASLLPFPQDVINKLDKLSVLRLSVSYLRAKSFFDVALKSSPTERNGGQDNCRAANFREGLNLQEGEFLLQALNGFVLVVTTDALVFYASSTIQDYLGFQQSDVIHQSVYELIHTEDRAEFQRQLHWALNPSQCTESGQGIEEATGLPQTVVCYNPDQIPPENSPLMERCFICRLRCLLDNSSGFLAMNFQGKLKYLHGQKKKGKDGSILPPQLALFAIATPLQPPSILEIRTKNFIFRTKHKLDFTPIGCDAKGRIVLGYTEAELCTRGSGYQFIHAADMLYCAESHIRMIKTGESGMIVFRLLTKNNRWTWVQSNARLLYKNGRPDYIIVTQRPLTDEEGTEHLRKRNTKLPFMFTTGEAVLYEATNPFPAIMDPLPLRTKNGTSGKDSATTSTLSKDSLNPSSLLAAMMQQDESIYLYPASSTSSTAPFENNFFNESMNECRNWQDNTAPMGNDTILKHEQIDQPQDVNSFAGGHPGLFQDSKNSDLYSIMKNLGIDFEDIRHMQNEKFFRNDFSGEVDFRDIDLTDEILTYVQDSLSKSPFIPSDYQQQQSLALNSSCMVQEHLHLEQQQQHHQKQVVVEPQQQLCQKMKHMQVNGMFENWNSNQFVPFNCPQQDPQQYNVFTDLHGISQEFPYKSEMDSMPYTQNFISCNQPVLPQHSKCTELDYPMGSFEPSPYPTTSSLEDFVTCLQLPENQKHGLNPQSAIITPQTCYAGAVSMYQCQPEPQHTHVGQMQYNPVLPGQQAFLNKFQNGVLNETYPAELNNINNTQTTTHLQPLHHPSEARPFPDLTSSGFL

Chain of Dual specificity protein phosphatase 3 (P51452 whole entry): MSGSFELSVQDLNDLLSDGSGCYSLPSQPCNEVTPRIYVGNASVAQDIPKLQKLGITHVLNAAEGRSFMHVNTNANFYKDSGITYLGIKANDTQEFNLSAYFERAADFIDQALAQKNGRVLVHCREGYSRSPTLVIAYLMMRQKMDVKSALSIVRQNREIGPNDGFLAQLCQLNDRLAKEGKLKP
Chain of Tyrosine-protein phosphatase non-receptor type 5 (P54829 whole entry): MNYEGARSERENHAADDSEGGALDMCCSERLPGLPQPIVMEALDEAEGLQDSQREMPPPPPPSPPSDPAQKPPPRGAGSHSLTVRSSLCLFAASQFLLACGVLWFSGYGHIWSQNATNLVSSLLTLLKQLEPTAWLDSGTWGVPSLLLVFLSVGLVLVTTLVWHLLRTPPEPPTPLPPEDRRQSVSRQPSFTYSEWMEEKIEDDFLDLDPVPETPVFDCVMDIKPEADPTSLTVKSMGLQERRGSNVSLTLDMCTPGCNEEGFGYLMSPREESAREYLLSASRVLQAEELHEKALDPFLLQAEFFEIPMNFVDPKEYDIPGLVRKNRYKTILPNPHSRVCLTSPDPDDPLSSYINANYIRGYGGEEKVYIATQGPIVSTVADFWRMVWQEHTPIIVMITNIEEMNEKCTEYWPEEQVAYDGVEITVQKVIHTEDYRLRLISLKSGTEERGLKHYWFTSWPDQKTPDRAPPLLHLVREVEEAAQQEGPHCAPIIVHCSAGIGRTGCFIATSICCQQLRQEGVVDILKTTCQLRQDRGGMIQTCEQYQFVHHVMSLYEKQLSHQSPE
Chain of Cytochrome P450 3A4 (P08684 whole entry): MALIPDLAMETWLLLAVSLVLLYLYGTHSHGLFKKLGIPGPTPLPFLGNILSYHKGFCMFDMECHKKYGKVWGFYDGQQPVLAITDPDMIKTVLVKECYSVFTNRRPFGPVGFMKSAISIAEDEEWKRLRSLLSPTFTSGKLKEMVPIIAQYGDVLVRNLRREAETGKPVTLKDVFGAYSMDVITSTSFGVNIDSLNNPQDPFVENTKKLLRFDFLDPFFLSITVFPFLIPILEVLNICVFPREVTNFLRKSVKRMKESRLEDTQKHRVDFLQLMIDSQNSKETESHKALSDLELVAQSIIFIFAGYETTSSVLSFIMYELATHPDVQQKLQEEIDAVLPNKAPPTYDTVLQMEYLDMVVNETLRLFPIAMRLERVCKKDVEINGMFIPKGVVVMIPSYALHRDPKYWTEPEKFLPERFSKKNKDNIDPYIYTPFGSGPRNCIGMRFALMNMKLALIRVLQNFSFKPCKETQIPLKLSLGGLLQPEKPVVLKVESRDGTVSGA
Chain of Adenosylmethionine-8-amino-7-oxononanoate aminotransferase (P9WQ81 whole entry, the tested form may be a part): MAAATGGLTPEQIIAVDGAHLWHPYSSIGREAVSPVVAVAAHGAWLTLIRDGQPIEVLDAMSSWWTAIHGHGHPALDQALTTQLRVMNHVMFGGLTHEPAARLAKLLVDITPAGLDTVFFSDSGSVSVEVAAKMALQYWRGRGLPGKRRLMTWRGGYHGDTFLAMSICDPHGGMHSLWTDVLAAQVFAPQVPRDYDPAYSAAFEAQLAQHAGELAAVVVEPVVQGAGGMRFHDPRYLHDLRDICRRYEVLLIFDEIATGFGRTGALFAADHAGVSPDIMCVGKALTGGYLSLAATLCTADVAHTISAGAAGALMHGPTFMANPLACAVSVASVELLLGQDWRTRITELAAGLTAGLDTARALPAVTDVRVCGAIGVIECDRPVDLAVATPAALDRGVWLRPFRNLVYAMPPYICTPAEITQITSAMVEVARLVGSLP
Chain of Tyrosine-protein phosphatase non-receptor type 11 (Q06124 whole entry): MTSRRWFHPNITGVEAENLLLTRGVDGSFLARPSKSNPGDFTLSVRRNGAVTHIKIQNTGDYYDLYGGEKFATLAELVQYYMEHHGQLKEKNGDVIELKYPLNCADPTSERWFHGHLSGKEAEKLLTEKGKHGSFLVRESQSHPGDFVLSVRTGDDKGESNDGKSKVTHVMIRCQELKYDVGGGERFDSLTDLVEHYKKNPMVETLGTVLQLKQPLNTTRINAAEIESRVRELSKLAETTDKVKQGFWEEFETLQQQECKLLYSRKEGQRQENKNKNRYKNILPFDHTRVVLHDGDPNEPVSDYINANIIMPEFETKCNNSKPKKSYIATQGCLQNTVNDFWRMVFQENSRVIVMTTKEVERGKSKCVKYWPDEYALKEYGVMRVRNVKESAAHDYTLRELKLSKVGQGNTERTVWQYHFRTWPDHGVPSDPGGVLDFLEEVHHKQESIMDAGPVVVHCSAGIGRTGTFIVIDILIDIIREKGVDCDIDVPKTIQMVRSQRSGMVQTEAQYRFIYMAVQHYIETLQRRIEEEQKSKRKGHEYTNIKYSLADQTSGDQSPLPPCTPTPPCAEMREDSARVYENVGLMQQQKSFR

With `CCOc1ccc(CCNC(=O)CS(=O)(=O)Cc2nc(-c3ccc(OC)cc3)oc2C)cc1` the IC50 [1] was 9.1 µM (active), the IC50 [2] was > 80 µM (inactive) and the IC50 [3] was 26.8 µM (inactive).

With `Cn1c(-c2ccccc2)cnc1N` the AC50 [4] was 102 µM (active), the AC50 (Escherichia coli) was 22.7 µM (active) and the AC50 (Cytochrome P450 3A4) was 28.2 µM (inconclusive).

With `CC(=O)c1ccc(N2CCN(C(=O)Cc3ccccc3)CC2)c(F)c1` the AC50 [5] was 4.97 µM (active).

In the case of `C/C(CC(=O)NCc1ccccc1Cl)=N/NC(=O)c1ccccn1`, the AC50 [6] is reported as 77.8 µM (active).

With `CCOP(=S)(OCC)Oc1ncn(-c2ccccc2)n1` [TRIAZOPHOS] the AC50 [7] was 11.2 µM (inconclusive).

Source: ChEMBL document CHEMBL1201862, “PubChem BioAssay data set” (2004)
